First: CCc1coc(Cc2ccc(NC(=O)/C=C/c3cnn(C)c3-c3ccc(F)cc3)cc2)n1 [Example 98, (2E)-N-{4-[(4-Ethyl-1,3-oxazol-2-yl)methyl]phenyl}-3-[5-(4-fluorophenyl)-1-methyl-1H-pyrazol-4-yl]acrylamide]
Second: CCc1nc(Cc2ccc(NC(=O)/C=C/c3cnn(C)c3-c3ccc(F)cc3)cc2)cs1 [Example 99, (2E)-N-{4-[(2-Ethyl-1,3-thiazol-4-yl)methyl]phenyl}-3-[5-(4-fluorophenyl)-1-methyl-1H-pyrazol-4-yl]acrylamide]
The melting point of the first is lower: 174 to 175 °C for the first, 178 to 179 °C for the second.

First: Cc1nc(Cc2ccc(NC(=O)/C=C/c3cnn(C)c3-c3ccc(F)cc3)cc2)cs1 [Example 100, (2E)-3-[5-(4-Fluorophenyl)-1-methyl-1H-pyrazol-4-yl]-N-{4-[(2-methyl-1,3-thiazol-4-yl)methyl]phenyl}acrylamide]
Second: Cc1nc(Cc2ccc(NC(=O)/C=C/c3cnn(C)c3-c3ccc(F)cc3)cc2)no1 [Example 116, (2E)-3-[5-(4-Fluorophenyl)-1-methyl-1H-pyrazol-4-yl]-N-{4-[(5-methyl-1,2,4-oxadiazol-3-yl)methyl]phenyl}acrylamide]
The melting point of the first is higher: 192 to 193 °C for the first, 183 to 184 °C for the second.

Compared with `Cn1nnnc1Cc1ccc(NC(=O)/C=C/c2cnn(C)c2-c2ccc(F)cc2)cc1` [Example 101, (2E)-3-[5-(4-Fluorophenyl)-1-methyl-1H-pyrazol-4-yl]-N-{4-[(1-methyl-1H-tetrazol-5-yl)methyl]phenyl}acrylamide], `CCn1nnnc1Cc1ccc(NC(=O)/C=C/c2cnn(C)c2-c2ccc(F)cc2)cc1` [Example 103, (2E)-N-{4-[(1-Ethyl-1H-tetrazol-5-yl)methyl]phenyl}-3-[5-(4-fluorophenyl)-1-methyl-1H-pyrazol-4-yl]acrylamide] is lower in melting point: 243 to 244 °C for the first, 206 to 207 °C for the second.

First: Cn1nnc(Cc2ccc(NC(=O)/C=C/c3cnn(C)c3-c3ccc(F)cc3)cc2)n1 [Example 102, (2E)-3-[5-(4-Fluorophenyl)-1-methyl-1H-pyrazol-4-yl]-N-{4-[(2-methyl-2H-tetrazol-5-yl)methyl]phenyl}acrylamide]
Second: CCn1nnc(Cc2ccc(NC(=O)/C=C/c3cnn(C)c3-c3ccc(F)cc3)cc2)n1 [Example 104, (2E)-N-{4-[(2-Ethyl-2H-tetrazol-5-yl)methyl]phenyl}-3-[5-(4-fluorophenyl)-1-methyl-1H-pyrazol-4-yl]acrylamide]
The melting point of the first is lower: 159 to 161 °C for the first, 187 to 188 °C for the second.

Compared with `Cn1ncc(/C=C/C(=O)Nc2ccc(CC(C)(C)C)cc2)c1-c1ccc(F)cc1` [Example 105, (2E)-3-[5-(4-Fluorophenyl)-1-methyl-1H-pyrazol-4-yl]-N-(4-neopentylphenyl)acrylamide], `Cn1ncc(/C=C/C(=O)Nc2ccc(CC(C)(C)O)cc2)c1-c1ccc(F)cc1` [Example 114, (2E)-3-[5-(4-Fluorophenyl)-1-methyl-1H-pyrazol-4-yl]-N-[4-(2-hydroxy-2-methylpropyl)phenyl]acrylamide] is higher in melting point: 150 to 151 °C for the first, 188 to 189 °C for the second.

First: Cn1ncc(/C=C/C(=O)Nc2ccc(Cc3nc4ccccc4o3)cc2)c1-c1ccc(F)cc1 [Example 107, (2E)-N-[4-(1,3-Benzoxazol-2-ylmethyl)phenyl]-3-[5-(4-fluorophenyl)-1-methyl-1H-pyrazol-4-yl]acrylamide]
Second: Cn1ncc(/C=C/C(=O)Nc2ccc(Cc3nn(C)c(=O)o3)cc2)c1-c1ccc(F)cc1 [Example 119, (2E)-3-[5-(4-Fluorophenyl)-1-methyl-1H-pyrazol-4-yl]-N-{4-[(4-methyl-5-oxo-4,5-dihydro-1,3,4-oxadiazol-2-yl)methyl]phenyl}acrylamide]
The melting point of the first is lower: 195 to 196 °C for the first, 200 to 201 °C for the second.

First: CCOC(=O)Cc1ccc(NC(=O)/C=C/c2cnn(C)c2-c2ccc(F)cc2)cc1 [Example 109, ethyl [4-({(2E)-3-[5-(4-fluorophenyl)-1-methyl-1H-pyrazol-4-yl]prop-2-enoyl}amino)phenyl]acetate]
Second: CC(=O)N(C)Cc1ccc(NC(=O)/C=C/c2cnn(C)c2-c2ccc(F)cc2)cc1 [Example 117, (2E)-N-(4-{[Acetyl(methyl)amino]methyl}phenyl)-3-[5-(4-fluorophenyl)-1-methyl-1H-pyrazol-4-yl]acrylamide]
The melting point of the first is lower: 177 to 178 °C for the first, 192 to 193 °C for the second.

Compared with `CCN1C(=O)SC(Cc2ccc(NC(=O)/C=C/c3cnn(C)c3-c3ccc(F)cc3)cc2)C1=O` (centres unmarked) [Example 111, (2E)-N-{4-[(3-Ethyl-2,4-dioxo-1,3-thiazolidin-5-yl)methyl]phenyl}-3-[5-(4-fluorophenyl)-1-methyl-1H-pyrazol-4-yl]acrylamide], `CCn1nc(Cc2ccc(NC(=O)/C=C/c3cnn(C)c3-c3ccc(F)cc3)cc2)oc1=O` [Example 120, (2E)-N-{4-[(4-Ethyl-5-oxo-4,5-dihydro-1,3,4-oxadiazol-2-yl)methyl]phenyl}-3-[5-(4-fluorophenyl)-1-methyl-1H-pyrazol-4-yl]acrylamide] is lower in melting point: 214 to 215 °C for the first, 149 to 150 °C for the second.

First: CCc1csc(CCc2ccc(NC(=O)/C=C/c3cnn(C)c3-c3ccc(F)cc3)cc2)n1 [Example 113, (2E)-N-{4-[2-(4-Ethyl-1,3-thiazol-2-yl)ethyl]phenyl}-3-[5-(4-fluorophenyl)-1-methyl-1H-pyrazol-4-yl]acrylamide]
Second: CCc1nc(Cc2ccc(NC(=O)/C=C/c3cnn(C)c3-c3ccc(F)cc3)cc2)no1 [Example 118, (2E)-N-{4-[(5-Ethyl-1,2,4-oxadiazol-3-yl)methyl]phenyl}-3-[5-(4-fluorophenyl)-1-methyl-1H-pyrazol-4-yl]acrylamide]
The melting point of the first is higher: 200 to 201 °C for the first, 150 to 152 °C for the second.

First: CCC(O)(CC)Cc1ccc(NC(=O)/C=C/c2cnn(C)c2-c2ccc(F)cc2)cc1 [Example 115, (2E)-N-[4-(2-Ethyl-2-hydroxybutyl)phenyl]-3-[5-(4-fluorophenyl)-1-methyl-1H-pyrazol-4-yl]acrylamide]
Second: Cc1nc(Cc2ccc(NC(=O)/C=C/c3cnn(C)c3-c3ccc(F)cc3)cc2)sc1C [Example 123, (2E)-N-{4-[(4,5-Dimethyl-1,3-thiazol-2-yl)methyl]phenyl}-3-{5-(4-fluorophenyl)-1-methyl-1H-pyrazol-4-yl}acrylamide]
The melting point of the first is lower: 150 to 151 °C for the first, 210 to 211 °C for the second.

Compound `Cn1ncc(/C=C/C(=O)Nc2ccc3c(c2)oc(=O)n3C)c1-c1ccc(F)cc1` [Example 122, (2E)-3-[5-(4-Fluorophenyl)-1-methyl-1H-pyrazol-4-yl]-N-(3-methyl-2-oxo-2,3-dihydro-1,3-benzoxazol-6-yl)acrylamide] has a melting point of 265 to 266 °C.

For `Cn1ncc(/C=C/C(=O)Nc2ccc3[nH]c(=O)oc3c2)c1-c1ccc(F)cc1` [Example 106, (2E)-3-[5-(4-Fluorophenyl)-1-methyl-1H-pyrazol-4-yl]-N-(2-oxo-2,3-dihydro-1,3-benzoxazol-6-yl)acrylamide], the melting point was greater than 300 °C.
`Cn1ncc(/C=C/C(=O)Nc2ccc(Cc3nc4ccccc4[nH]3)cc2)c1-c1ccc(F)cc1` [Example 108, (2E)-N-[4-(1H-Benzimidazol-2-ylmethyl)phenyl]-3-[5-(4-fluorophenyl)-1-methyl-1H-pyrazol-4-yl]acrylamide] gave a melting point greater than 300 °C.
